This experiment relates to IL-2. In words: Inhibition of IL-2 production in phytohemagglutinin-activated human PBMCs (sandwich ELISA). The experiment is classed as cell-based. As to conditions: Homo sapiens, PBMC, 46 h, approximately 46 hours, read-out: IL-2 pIC50 (converted). The method, then: Peripheral blood mononuclear cells (PBMCs) were isolated from human blood. The lymphocytes, a fraction of the PBMCs, were activated to secrete IL-2 using the polyclonal mitogen phytohemagglutinin. The test compounds were added in concentrations from 10^−5 to 10^−10, and the cells (10^6/ml) were incubated in microtiter wells at 37° C. for approximately 46 hours.
After 46 hours the cells were centrifuged down for 25 minutes at 1000×g and the supernatants were transferred to transferred to microtiter wells precoated with a monoclonal antibody against human IL-2. The IL-2 concentration in the supernatants was determined by a sandwich ELISA. Microtiter plates were coated (1 μg/ml) with a monoclonal antibody (R&D, UK) against human IL-2, washed 4 times, blocked with 1% casein buffer for 2 hours and washed 2 times. 100 μl sample was added to each well and incubated overnight. All samples were tested in triplicate. 100 μl IL-2 standards (R&D, UK) at a concentration range of 10000-0 pg/ml were tested in triplicate. After incubation the plates were washed and incubated with biotinylated polyclonal secondary antibody against human IL-2 (R&D, UK) for 45 minutes and thereafter washed 4 times. 100 μl enzyme conjugate, horseradish peroxidase conjugated streptavidin diluted 1:4000 (Zymed, USA), was added to all wells and incubated for 30 minutes. 100 μl OPD substrate (KEM EN TEC-DK) was added and the enzyme/substrate reaction stopped after 10 minutes at room temperature with 50 μl 1 M H2SO4. The colour development (optical density—OD) was determined at 492 nm on an ELISA reader and the background OD at 620 nm subtracted).

As for `Cc1ccc(/C=C2\C(=O)Nc3ccccc32)c(C)c1`, the IC50 is 631 nM.

`O=C1Nc2ccccc2/C1=C/c1ccc(Cl)c(Cl)c1`: the IC50 was 20 nM.

`O=C1Nc2ccccc2/C1=C/c1ccc(Cl)cc1`: the IC50 was 79.4 nM.

With `Cc1ccc(/C=C2/C(=O)Nc3ccccc32)c(C)c1`, the IC50 is 1 nM.

With `COc1ccc(/C=C2/C(=O)Nc3ccccc32)c(OC)c1`, the IC50 is 2 nM.

Turning to `Cc1ccc(/C=C2\C(=O)Nc3ccccc32)cc1C`, the IC50 was 50.1 nM.

Regarding `O=C1Nc2ccccc2/C1=C\c1cccc(Cl)c1`, the IC50 is 10 nM.

Take `O=C1Nc2ccccc2/C1=C\c1ccc(Cl)cc1Cl`: the IC50 was 1 nM.

As for `O=C1Nc2ccccc2/C1=C\c1ccc(Cl)c(Cl)c1`, the IC50 was 1 nM.

With `O=C1Nc2ccccc2/C1=C\c1cccc(Br)c1`, the IC50 was 10 nM.

For `O=C1Nc2ccccc2/C1=C\c1ccc(O)cc1O`, the IC50 was 316 nM.

Turning to `Cc1cccc(COc2ccc(/C=C3/C(=O)Nc4ccccc43)cc2)n1`, the IC50 is 398 nM.

With `COc1ccc(OC)c(/C=C2/C(=O)Nc3ccc(Cl)cc32)c1`, the IC50 is 6.31 nM.

As for `COc1ncc(/C=C2/C(=O)Nc3ccccc32)c(OC)n1`, the IC50 was 6.31 nM.

For the compound `COc1cc(/C=C2/C(=O)Nc3ccccc32)ccc1O`, the IC50 was 100 nM.

Consider `O=C1Nc2ccccc2/C1=C\c1cc(-c2ccccc2)cs1`, for which the IC50 was 31.6 nM.

Consider `COc1ccc(OC)c(/C=C2/C(=O)Nc3ccc(Br)cc32)c1`, for which the IC50 was 100 nM.

As to `COc1ccc(OC)c(/C=C2/C(=O)Nc3c(F)cc(F)cc32)c1`, the IC50 was 10 nM.

Regarding `COc1ccc(OC)c(/C=C2/C(=O)Nc3c(Br)cccc32)c1`, the IC50 is 10 nM.

Consider `COc1ccc(OC)c(/C=C2/C(=O)Nc3cc(F)ccc32)c1`, for which the IC50 is 10 nM.

With `COc1ccc(OC)c(/C=C2/C(=O)Nc3ccc(C(F)(F)F)cc32)c1`, the IC50 was 631 nM.

On to `COc1ccc(OC)c(/C=C2/C(=O)Nc3ccc(O)cc32)c1`, for which the IC50 was 200 nM.

On to `O=C1Nc2ccc(Cl)cc2/C1=C/c1c[nH]c2ccccc12`, for which the IC50 is 10 nM.

As for `CCn1c2ccccc2c2cc(/C=C3/C(=O)Nc4ccccc43)ccc21`, the IC50 was 200 nM.

As to `COc1ccc(OC)c(/C=C2/C(=O)Nc3ccc(F)c(F)c32)c1`, the IC50 is 20 nM.

With `O=C1Nc2ccccc2/C1=C\c1cc(Cl)cc(Cl)c1O`, the IC50 was 398 nM.

As for `CCOc1ccc(OCC)c(/C=C2/C(=O)Nc3ccccc32)c1`, the IC50 was 631 nM.

With `O=C1Nc2ccccc2/C1=C\c1cc(O)ccc1O`, the IC50 was 100 nM.

As to `Cc1ccc2[nH]cc(/C=C3/C(=O)Nc4ccccc43)c2c1`, the IC50 is 20 nM.

As for `O=C1Nc2ccccc2/C1=C\c1cc(Br)co1`, the IC50 was 31.6 nM.

Turning to `O=C1Nc2c(F)cc(F)cc2/C1=C/c1c[nH]c2ccccc12`, the IC50 is 2 nM.

On to `O=C1Nc2ccc(Br)cc2/C1=C/c1c[nH]c2ccccc12`, for which the IC50 was 2 nM.

In the case of `COc1ccc(O)c(/C=C2/C(=O)Nc3ccccc32)c1`, the IC50 is 316 nM.

Consider `COc1cc(OC)c(OC)cc1/C=C1/C(=O)Nc2ccccc21`, for which the IC50 was 2 nM.

For the compound `O=C1Nc2cc(F)ccc2/C1=C/c1c[nH]c2ccccc12`, the IC50 was 3.16 nM.

`O=C1Nc2cc(Br)ccc2/C1=C/c1c[nH]c2ccccc12`: the IC50 is 3.16 nM.

As to `O=C1Nc2ccc(O)cc2/C1=C/c1c[nH]c2ccccc12`, the IC50 was 79.4 nM.

As for `O=C1Nc2ccccc2/C1=C\c1c[nH]c2c(F)c(F)c(F)c(F)c12`, the IC50 is 2 nM.

For the compound `Cc1cc(/C=C2/C(=O)Nc3ccccc32)sc1C`, the IC50 is 100 nM.

`O=C1Nc2ccccc2/C1=C\c1cn(Cc2cnc(Cl)s2)c2ccccc12`: the IC50 is 10 nM.

On to `O=C1Nc2ccccc2/C1=C/c1c[nH]c2cc(F)ccc12`, for which the IC50 was 1 nM.

In the case of `Cc1cc(/C=C2/C(=O)Nc3ccccc32)oc1C`, the IC50 was 3.98 nM.

For the compound `O=C1Nc2c(Br)cccc2/C1=C/c1c[nH]c2ccccc12`, the IC50 was 0.2 nM.

With `O=C1Nc2ccccc2/C1=C\c1cc(OC(F)(F)F)ccc1O`, the IC50 is 63.1 nM.

Turning to `Cc1ccc2c(/C=C3/C(=O)Nc4ccccc43)c[nH]c2c1`, the IC50 is 0.1 nM.

`Cc1cccc2c(/C=C3/C(=O)Nc4ccccc43)c[nH]c12`: the IC50 is 3.98 nM.

Consider `Cn1c(/C=C2/C(=O)Nc3ccccc32)cc2ccccc21`, for which the IC50 is 100 nM.

Consider `COc1cc(/C=C2/C(=O)Nc3ccccc32)c(OCc2ccccc2)cc1OC`, for which the IC50 was 794 nM.

For the compound `O=C1Nc2ccccc2/C1=C/c1c[nH]c2ccc(F)cc12`, the IC50 was 100 nM.

As for `O=C1Nc2ccccc2/C1=C\c1cc(Cl)ccc1Cl`, the IC50 is 3.16 nM.

On to `Cc1cc(C[n+]2ccccc2)[nH]c1/C=C1\C(=O)Nc2ccccc21`, for which the IC50 was 6.31 nM.

As for `COc1ccc2[nH]cc(/C=C3\C(=O)Nc4ccccc43)c2c1`, the IC50 is 10 nM.

On to `O=C1Nc2ccccc2/C1=C/c1c[nH]c2ccc(OCc3ccccc3)cc12`, for which the IC50 was 10 nM.

As to `COc1ccc2c(/C=C3\C(=O)Nc4ccccc43)c[nH]c2c1`, the IC50 was 0.2 nM.

With `COc1ccc2c(/C=C3\C(=O)Nc4ccccc43)cn(C)c2c1`, the IC50 is 6.31 nM.

On to `O=C1Nc2ccccc2/C1=C/c1c[nH]c2cccc(OCc3ccccc3)c12`, for which the IC50 was 100 nM.

Take `N#Cc1cccc2c1NC(=O)/C2=C\c1c[nH]c2ccccc12`: the IC50 is 1 nM.

Turning to `N#Cc1ccc2c(c1)/C(=C/c1c[nH]c3ccccc13)C(=O)N2`, the IC50 was 1 nM.

With `O=C1Nc2c(F)cccc2/C1=C/c1c[nH]c2ccccc12`, the IC50 is 0.316 nM.

For the compound `Cc1[nH]c(/C=C2\C(=O)Nc3ccccc32)c(C)c1Cl`, the IC50 is 1 nM.

In the case of `O=C1Nc2cc(C(F)(F)F)ccc2/C1=C/c1c[nH]c2ccccc12`, the IC50 is 20 nM.

As for `O=C1Nc2ccc(F)c(F)c2/C1=C/c1c[nH]c2ccccc12`, the IC50 is 3.98 nM.

`COc1ccc2c(c1)/C(=C/c1c[nH]c3ccccc13)C(=O)N2`: the IC50 is 31.6 nM.

With `O=C1Nc2cc(Cl)ccc2/C1=C/c1c[nH]c2ccccc12`, the IC50 is 63.1 nM.

`COc1ccc(OC)c(/C=C2/C(=O)Nc3c(C#N)cccc32)c1`: the IC50 is 31.6 nM.

`COc1ccc(OC)c(/C=C2/C(=O)Nc3cc(S(C)(=O)=O)ccc32)c1`: the IC50 is 794 nM.

As to `COc1ccc(OC)c(/C=C2/C(=O)Nc3cc(C(F)(F)F)ccc32)c1`, the IC50 is 10 nM.

`COc1ccc(OC)c(/C=C2/C(=O)Nc3c(F)cccc32)c1`: the IC50 is 501 nM.

Regarding `COc1ccc(OC)c(/C=C2/C(=O)Nc3cc(Cl)ccc32)c1`, the IC50 was 31.6 nM.

Consider `O=C1Nc2ccccc2/C1=C\c1cc(Br)ccc1Br`, for which the IC50 was 39.8 nM.

In the case of `COc1ccc(Br)cc1/C=C1/C(=O)Nc2ccccc21`, the IC50 was 10 nM.

Consider `COc1ccc(F)c(/C=C2/C(=O)Nc3ccccc32)c1`, for which the IC50 was 63.1 nM.

Take `CCN(CC)CCNC(=O)c1cc(C)c(/C=C2\C(=O)Nc3ccccc32)[nH]1`: the IC50 is 39.8 nM.

`O=C1Nc2ccccc2/C1=C/c1ccc(Cl)cc1Cl`: the IC50 is 200 nM.

Turning to `CCOC(=O)CCn1cc(/C=C2\C(=O)Nc3ccccc32)c2ccccc21`, the IC50 was 200 nM.

Consider `COc1ccc(O)c(/C=C2\C(=O)Nc3ccccc32)c1`, for which the IC50 is 200 nM.

Regarding `O=C(O)CCn1cc(/C=C2\C(=O)Nc3ccccc32)c2ccccc21`, the IC50 is 200 nM.

Take `Cc1cc(C(=O)NCCCC2CCN(C=O)CC2)[nH]c1/C=C1\C(=O)Nc2ccccc21`: the IC50 is 50.1 nM.

Consider `Cc1cc(C(=O)NCCCCCCO)[nH]c1/C=C1\C(=O)Nc2ccccc21`, for which the IC50 was 100 nM.

`COC(=O)CCCNC(=O)c1cc(C)c(/C=C2\C(=O)Nc3ccccc32)[nH]1`: the IC50 is 50.1 nM.

Consider `Cc1cc(C)cc(-c2ccc(N(C)CCN(C)C)c(/C=C3\C(=O)Nc4ccccc43)c2)c1`, for which the IC50 was 63.1 nM.

On to `Cc1cc(C(=O)NCC2(c3ccc(Cl)cc3)CC2)[nH]c1/C=C1\C(=O)Nc2ccccc21`, for which the IC50 was 63.1 nM.

In the case of `Cc1cc(C(=O)NCC2CCCO2)[nH]c1/C=C1\C(=O)Nc2ccccc21` (centres unmarked), the IC50 was 20 nM.

Consider `CCOC(=O)CCCCCNC(=O)c1cc(C)c(/C=C2\C(=O)Nc3ccccc32)[nH]1`, for which the IC50 is 79.4 nM.

For `CCOC(=O)CCCNC(=O)c1cc(C)c(/C=C2\C(=O)Nc3ccccc32)[nH]1`, the IC50 was 39.8 nM.

As for `Cc1cc(C(=O)NCCCCCO)[nH]c1/C=C1\C(=O)Nc2ccccc21`, the IC50 was 63.1 nM.

As to `Cc1cc(C(=O)NCCCc2ccccc2)[nH]c1/C=C1\C(=O)Nc2ccccc21`, the IC50 is 50.1 nM.

Turning to `Cc1cc(C(=O)NCCc2c[nH]c3ccccc23)[nH]c1/C=C1\C(=O)Nc2ccccc21`, the IC50 is 39.8 nM.

Regarding `Cc1cc(C(=O)NCCCCc2ccccc2)[nH]c1/C=C1\C(=O)Nc2ccccc21`, the IC50 is 100 nM.

As for `O=C1Nc2ccccc2/C1=C\c1ccc2cc[nH]c2c1`, the IC50 was 6.31 nM.

For the compound `Cc1cc(C(=O)NCC2CCCCC2)[nH]c1/C=C1\C(=O)Nc2ccccc21`, the IC50 was 31.6 nM.

On to `Cn1cc(/C(C(=O)O)=C2\C(=O)Nc3ccccc32)c2ccccc21`, for which the IC50 was 794 nM.

For the origin of these results see patent US20070167488A1, “Novel therapeutic use” (Leo Pharma A/S, priority 2003, published 2007).
